According to patent US9499550B2 (BRISTOL-MYERS SQUIBB COMPANY, priority 2012, dated 2016):
Read-outs that look alike come from different tables or passages of the source.

Experiments:
[1] = test system: HCV genotype 1a (H77 strain) replicon in HUH-7 cells; assay: HCV replicon luciferase reporter assay, genotype 1a; assay type: cell-based; settings: Hepatitis C virus, Huh-7, 72 h, 3 days incubation
Procedure, shortened: (§1)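 Replicon inhibition for both genotypes was measured as Renilla luciferase signal (EnduRen, 7.5 μM final, 2 h) after 3-day, 37° C exposure of replicon-bearing HUH-7 cells in 4% FCS DMEM, 0.5% DMSO. The 1b construct carries S1179I; the 1a H77 construct carries P1496L and S2204I. Twenty-point, 3-fold dilutions were fitted four-parametrically for EC50, and CC50 was taken from multiplexed Cell Titer-Blue.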

[2] = test system: HCV genotype 1b (Con1) replicon in HUH-7 cells; assay: HCV replicon luciferase reporter assay, genotype 1b; assay type: cell-based; settings: Hepatitis C virus, Huh-7, 72 h, 3 days incubation
Procedure, shortened: as §1

[3] = HCV genotype 1a replicon luciferase, read-out: LE_1a (EC50, range)
[4] = HCV genotype 1b replicon luciferase, read-out: LE_1b (EC50, range)
[5] = HCV genotype 1a replicon luciferase assay, range class, read-out: LE_1a (EC50, range)
[6] = HCV genotype 1b replicon luciferase assay, range class, read-out: LE_1b (EC50, range)
[7] = GETYPE1A, HCV genotype 1a replicon luciferase, read-out: LE_1a (EC50, range)
[8] = GETYPE1B, HCV genotype 1b replicon luciferase, read-out: LE_1b (EC50, range)

`COc1cnc(O[C@@H]2C[C@H]3C(=O)N[C@]4(C(=O)NS(=O)(=O)C5(F)CC5)C[C@H]4/C=C\CC[C@@H](C)C[C@@H](C)[C@H](NC(=O)OCC(C)(C)C)C(=O)N3C2)c2cc(F)ccc12` [Compound 4047, neopentyl (2R,6S,7R,9R,13aS,14aR,16aS,Z)-2-(7-fluoro-4-methoxyisoquinolin-1-yloxy)-14a-(1-fluorocyclopropylsulfonylcarbamoyl)-7,9-dimethyl-5,16-dioxo-1,2,3,5,6,7,8,9,10,11,13a,14,14a,15,16,16a-hexadecahydrocyclopropa[e]pyrrolo[1,2-a][1,4]diazacyclopentadecin-6-ylcarbamate] was tested, and the EC50 [1, 3] was < 5.46 nM and the EC50 [2, 4] was < 5.46 nM.
With `CCOc1nnc(O[C@@H]2C[C@H]3C(=O)N[C@]4(C(=O)NS(=O)(=O)C5CC5)C[C@H]4/C=C\CC[C@@H](C)C[C@@H](C)[C@H](NC(=O)OC(C)(C)C)C(=O)N3C2)c2ccccc12` [Compound 5035, tert-butyl ((2R,6S,7R,9R,13aS,14aR,16aS,Z)-14a-((cyclopropylsulfonyl)carbamoyl)-2-((4-ethoxyphthalazin-1-yl)oxy)-7,9-dimethyl-5,16-dioxo-1,2,3,5,6,7,8,9,10,11,13a,14,14a,15,16,16a-hexadecahydrocyclopropa[e]pyrrolo[1,2-a][1,4]diazacyclopentadecin-6-yl)carbamate] the EC50 [1, 3] was < 5.46 nM and the EC50 [2, 4] was < 5.46 nM.
In the case of `COCCOc1cnc(O[C@@H]2C[C@H]3C(=O)N[C@]4(C(=O)NS(=O)(=O)C5CC5)C[C@H]4/C=C\CC[C@@H](C)C[C@@H](C)[C@H](NC(=O)OC(C)(C)C(C)(F)F)C(=O)N3C2)c2ccc(OC)cc12` [Compound 1151, 3,3-difluoro-2-methylbutan-2-yl((2R,6S,7R,9R,13aS,14aR,16aS,Z)-14a-((cyclopropylsulfonyl)carbamoyl)-2-((6-methoxy-4-(2-methoxyethoxyl)isoquinolin-1-yl)oxy)-7,9-dimethyl-5,16-dioxo-1,2,3,5,6,7,8,9,10,11,13a,14,14a,15,16,16a-hexadecahydrocyclopropa[e]pyrrolo[1,2-a][1,4]diazacyclopentadecin-6-yl)carbamate], the EC50 [1, 5] is reported as < 5.46 nM and the EC50 [2, 6] is reported as < 5.46 nM.
With `CC[C@@H]1C[C@H](C)CC/C=C\[C@@H]2C[C@@]2(C(=O)NS(=O)(=O)C2(C)CC2)NC(=O)[C@@H]2C[C@@H](Oc3ncc(OC)c4ccc(Cl)cc34)CN2C(=O)[C@H]1NC(=O)OC(C)(C)C(F)(F)F` [Compound 4188] the EC50 [1, 7] was < 5.46 nM and the EC50 [2, 8] was < 5.46 nM.
`COc1cc(F)cc2c(O[C@@H]3C[C@H]4C(=O)N[C@]5(C(=O)NS(=O)(=O)C6CC6)C[C@H]5/C=C\CC[C@@H](C)C[C@@H](C)[C@H](NC(=O)OC(C)(C)C)C(=O)N4C3)nccc12` [Compound 3164, tert-butyl ((2R,6S,7R,9R,13aS,14aR,16aS,Z)-14a-((cyclopropylsulfonyl)carbamoyl)-2-((7-fluoro-5-methoxyisoquinolin-1-yl)oxy)-7,9-dimethyl-5,16-dioxo-1,2,3,5,6,7,8,9,10,11,13a,14,14a,15,16,16a-hexadecahydrocyclopropa[e]pyrrolo[1,2-a][1,4]diazacyclopentadecin-6-yl)carbamate] was tested, and the EC50 [1, 5] was < 5.46 nM and the EC50 [2, 6] was < 5.46 nM.
Molecule `CC[C@@H]1C[C@H](C)CC/C=C\[C@@H]2C[C@@]2(C(=O)NS(=O)(=O)C2(C)CC2)NC(=O)[C@@H]2C[C@@H](Oc3nccc4cc(OC)c(F)cc34)CN2C(=O)[C@H]1NC(=O)OC1(C(F)(F)F)CCCCO1` (stereo partly drawn) [Compound 1192] has an EC50 [1, 7] of 1.01 to 5 nM and an EC50 [2, 8] of 0.51 to 1 nM.
For `CC[C@@H]1C[C@H](C)CC/C=C\[C@@H]2C[C@@]2(C(=O)NS(=O)(=O)C2(C)CC2)NC(=O)[C@@H]2C[C@@H](Oc3ncc(OC)c4ccc(F)cc34)CN2C(=O)[C@H]1NC(=O)OC(C)(C)C(F)F` [Compound 5529, 1,1-difluoro-2-methylpropan-2-yl((2R,6S,7R,9R,13aS,14aR,16aS,Z)-7-ethyl-2-((7-fluoro-4-methoxyisoquinolin-1-yl)oxy)-9-methyl-14a-(((1-methylcyclopropyl)sulfonyl)carbamoyl)-5,16-dioxo-1,2,3,5,6,7,8,9,10,11,13a,14,14a,15,16,16a-hexadecahydrocyclopropa[e]pyrrolo[1,2-a][1,4]diazacyclopentadecin-6-yl)carbamate], the EC50 [1, 3] was 1.01 to 5 nM and the EC50 [2, 4] was 0.1 to 0.5 nM.
`COc1cc2ccccc2c(O[C@@H]2C[C@H]3C(=O)N[C@]4(C(=O)NS(=O)(=O)C5CC5)C[C@H]4/C=C\CC[C@@H](C)C[C@@H](C)[C@H](NC(=O)OC(C)(C)C(C)(F)F)C(=O)N3C2)n1` [Compound 6036, 3,3-difluoro-2-methylbutan-2-yl((2R,6S,7R,9R,13aS,14aR,16aS,Z)-14a-((cyclopropylsulfonyl)carbamoyl)-2-((3-methoxyisoquinolin-1-yl)oxy)-7,9-dimethyl-5,16-dioxo-1,2,3,5,6,7,8,9,10,11,13a,14,14a,15,16,16a-hexadecahydrocyclopropa[e]pyrrolo[1,2-a][1,4]diazacyclopentadecin-6-yl)carbamate] was tested, and the EC50 ([1]; HCV genotype 1a replicon luciferase, read-out: LE_1a (EC50)) was 0.53 nM, the EC50 [1, 3] was < 5.46 nM and the EC50 ([2]; HCV genotype 1b replicon luciferase, read-out: LE_1b (EC50)) was 0.38 nM. The EC50 [2, 4] was < 5.46 nM.
With `COc1cc2ccnc(O[C@@H]3C[C@H]4C(=O)N[C@]5(C(=O)NS(=O)(=O)C6(F)CC6)C[C@H]5/C=C\CC[C@@H](C)C[C@@H](C)[C@H](NC(=O)OC(C)(C)C(F)(F)F)C(=O)N4C3)c2cc1Cl` [Compound 4043] the EC50 [1, 7] was < 5.46 nM and the EC50 [2, 8] was < 5.46 nM.
`C[C@@H]1CC/C=C\[C@@H]2C[C@@]2(C(=O)NS(=O)(=O)C2(CF)CC2)NC(=O)[C@@H]2C[C@@H](Oc3nc4c(c5ccccc35)CCCO4)CN2C(=O)[C@@H](NC(=O)OC(C)(C)C(C)(F)F)[C@H](C)C1` [Compound 6052, 3,3-difluoro-2-methylbutan-2-yl((2R,6S,7R,9R,13aS,14aR,16aS,Z)-2-((2,3-dihydro-1H-pyrano[2,3-c]isoquinolin-6-yl)oxy)-14a-(((1-(fluoromethyl)cyclopropyl)sulfonyl)carbamoyl)-7,9-dimethyl-5,16-dioxo-1,2,3,5,6,7,8,9,10,11,13a,14,14a,15,16,16a-hexadecahydrocyclopropa[e]pyrrolo[1,2-a][1,4]diazacyclopentadecin-6-yl)carbamate] was tested, and the EC50 [1, 3] was 5.01 to 35 nM and the EC50 [2, 4] was 0.1 to 0.5 nM.
With `COc1ccc2c(O[C@@H]3C[C@H]4C(=O)N[C@]5(C(=O)NS(=O)(=O)C6(C)CC6)C[C@H]5/C=C\CC[C@@H](C)C[C@@H](C)[C@H](NC(=O)OC(C)(C)C)C(=O)N4C3)nc(N(C)C)nc2c1` [Compound 3002, tert-butyl ((2R,6S,7R,9R,13aS,14aR,16aS,Z)-2-((2-(dimethylamino)-7-methoxyquinazolin-4-yl)oxy)-7,9-dimethyl-14a-(((1-methylcyclopropyl)sulfonyl)carbamoyl)-5,16-dioxo-1,2,3,5,6,7,8,9,10,11,13a,14,14a,15,16,16a-hexadecahydrocyclopropa[e]pyrrolo[1,2-a][1,4]diazacyclopentadecin-6-yl)carbamate] the EC50 [1, 5] was < 5.46 nM and the EC50 [2, 6] was < 5.46 nM.
With `C[C@H]1CC/C=C\[C@@H]2C[C@@]2(C(=O)NS(=O)(=O)C2CC2)NC(=O)[C@@H]2C[C@@H](Oc3nccc4c5c(ccc34)N(C)CCO5)CN2C(=O)[C@@H](NC(=O)c2ccc(N(C)C)cc2)[C@H](C)C1` [Compound 5289, (2R,6S,7R,9S,13aS,14aR,16aS,Z)—N-(cyclopropylsulfonyl)-6-(4-(dimethylamino)benzamido)-7,9-dimethyl-2-((4-methyl-3,4-dihydro-2H-[1,4]oxazino[2,3-f]isoquinolin-7-yl)oxy)-5,16-dioxo-1,2,3,5,6,7,8,9,10,11,13a,14,14a,15,16,16a-hexadecahydrocyclopropa[e]pyrrolo[1,2-a][1,4]diazacyclopentadecine-14a-carboxamide] the EC50 [1, 3] was 4.82 to 103 nM and the EC50 [2, 4] was < 5.46 nM.
Molecule `COCCn1nc(O[C@@H]2C[C@H]3C(=O)N[C@]4(C(=O)NS(=O)(=O)C5CC5)C[C@H]4/C=C\CC[C@@H](C)C[C@@H](C)[C@H](NC(=O)OC(C)(C)C(C)(F)F)C(=O)N3C2)c2ccccc2c1=O` [Compound 1024, 3,3-difluoro-2-methylbutan-2-yl((2R,6S,7R,9R,13aS,14aR,16aS,Z)-14a-((cyclopropylsulfonyl)carbamoyl)-2-((3-(2-methoxyethyl)-4-oxo-3,4-dihydrophthalazin-1-yl)oxy)-7,9-dimethyl-5,16-dioxo-1,2,3,5,6,7,8,9,10,11,13a,14,14a,15,16,16a-hexadecahydrocyclopropa[e]pyrrolo[1,2-a][1,4]diazacyclopentadecin-6-yl)carbamate] has an EC50 [1, 5] of 4.82 to 103 nM and an EC50 [2, 6] of 4.82 to 103 nM.
With `CCOc1cnc(O[C@@H]2C[C@H]3C(=O)N[C@]4(C(=O)NS(=O)(=O)C5CC5)C[C@H]4/C=C\CC[C@@H](C)C[C@@H](C)[C@H](NC(=O)OC(C)(C)C(F)(F)F)C(=O)N3C2)c2cc(F)ccc12` [Compound 4062] the EC50 [1, 7] was < 5.46 nM and the EC50 [2, 8] was < 5.46 nM.
